Measurements reported in patent publication US20060154923A1, “N-phenyl-3-cyclopropylpyrazole-4-carbonitriles as ectoparasiticidal agents” (priority 2002, published 2006).
Like-named read-outs stand apart in the source and are kept apart here.

How the values were obtained:
Assay type in all cases: in vivo
[1] = system: newly emerged larvae of Lucilia sericata, blowfly; test: Efficacy against blowfly larvae, treated paper/serum bioassay; settings: blowfly larvae; for mortality at 0.2 ppm / mortality at 2 ppm / mortality at 20 ppm: Lucilia sericata
Description: Evaluation of Efficacy of Test Compounds Against Blowfly Larvae
The efficacy of a test compound against newly emerged larvae of Lucilia sericata, blowfly, is evaluated using a treated paper/serum bioassay. In this evaluation, a solution of test compound in acetone is applied to a filter paper disc and the disc is allowed to dry. Bovine serum and about 20 newly emerged blowfly larvae are added to the treated paper disc and the mortality is assessed at 24 h and 48 h. The data are averaged.

[2] = system: Ctenocephatides felis, adult cat fleas; test: Contact activity against adult cat fleas, coated glass vial assay; settings: for % Mortality 4 h: Conc. 2 ug/cm2, 4 h; for % Mortality 24 h: Conc. 2 ug/cm2, 24 h
Description: Evaluation of the Efficacy of Test Compounds Against Adult Cat Fleas
(§1) The contact activity of a test compound against Ctenocephatides felis, adult cat fleas, is evaluated in a coated, glass vial assay. In this evaluation, a solution of test compound in acetone is allowed to dry on the interior surface of a 20 mL vial. Ten unfed adult cat fleas are added to the treated vial and mortality is assessed periodically for up to 48 h. All treatments are replicated 2 times. The data are averaged.

[3] = system: Rhipacephalus sanguineus, adult ticks; test: Contact activity against adult ticks, coated glass vial assay
Description: Evaluation of the Efficacy of Test Compounds Against Adult Ticks
as §1, with “Rhipacephalus sanguineus,” for “Ctenocephatides felis,”, “ticks,” for “cat fleas,”, “coated” for “coated,”, “Five” for “Ten”, “ticks” for “cat fleas”

SMILES | % Mortality 24 h ([1]; Conc. 2.0 ppm, 24 h) [%] | % Mortality 48 h ([1]; Conc. 2.0 ppm, 48 h) [%] | % Mortality 24 h ([1]; Conc. 20.0 ppm, 24 h) [%] | % Mortality 48 h ([1]; Conc. 20.0 ppm, 48 h) [%] | % Mortality 4 h [2] [%] | % Mortality 24 h [2] [%] | also measured
CCN(CC)c1c(C#N)c(C2(C)CC2(Cl)Cl)nn1-c1c(Cl)cc(C(F)(F)F)cc1Cl (stereo not shown) [Example 33] | 90 | 90 | 100 | 100 | 20 | 100 | % Mortality 24 h ([1]; Conc. 0.2 ppm, 24 h): 0%; % Mortality 48 h ([1]; Conc. 0.2 ppm, 48 h): 0%
CC1(c2nn(-c3c(Cl)cc(C(F)(F)F)cc3Cl)c([N+](=O)[O-])c2C#N)CC1(Cl)Cl (stereo not shown) [Example 30] | – | – | 20 | 20 | 0 | 100 | % Mortality 24 h ([1]; Conc. 10.0 ppm, 24 h): 10%; % Mortality 48 h ([1]; Conc. 10.0 ppm, 48 h): 50%
CCCOC=Nc1c(C#N)c(C2(C)CC2(Cl)Cl)nn1-c1c(Cl)cc(C(F)(F)F)cc1Cl (racemic) [Example 39] | 70 | 70 | 100 | 100 | 0 | 70 | % Mortality 24 h ([1]; Conc. 0.2 ppm, 24 h): 0%; % Mortality 48 h ([1]; Conc. 0.2 ppm, 48 h): 0%
CC1(c2nn(-c3c(Cl)cc(C(F)(F)F)cc3Cl)cc2C#N)CC1(Cl)Cl (stereo not shown) [Example 5] | – | – | – | – | 0 | 33 | –
CC1(c2nn(-c3c(Cl)cc(Cl)cc3Cl)cc2C#N)CC1(Cl)Cl (stereo not shown) [Example 6] | – | – | 70 | 70 | – | – | % Mortality 24 h ([1]; Conc. 1.0 ppm, 24 h): 10%; % Mortality 48 h ([1]; Conc. 1.0 ppm, 48 h): 10%
CC1C(Cl)(Cl)C1(C)c1nn(-c2c(Cl)cc(C(F)(F)F)cc2Cl)cc1C#N (stereo not shown) [Example 7] | 0 | 0 | 77 | 90 | 0 | 100 | % Mortality 4 h ([3]; Conc. 0.78 ug/cm2, 4 h): 0%; % Mortality 24 h ([3]; Conc. 0.78 ug/cm2, 24 h): 10%; % Mortality 4 h ([3]; Conc. 7.80 ug/cm2, 4 h): 10%; % Mortality 24 h ([3]; Conc. 7.80 ug/cm2, 24 h): 80%
CC1(c2nn(-c3c(Cl)cc(C(F)(F)F)cc3Cl)c(N)c2C#N)CC1(Cl)Cl (stereo not shown) [Example 19, 5-Amino-3-(2,2-dichloro-1-methylcyclopropyl)-1-[2,6-dichloro-4-(trifluoromethyl)phenyl]-1H-pyrazole-4-carbonitrile] | – | – | – | – | 0 | 10 | mortality at 0.2 ppm ([1]; Conc. 0.2 ppm, 24 h, read-out: % Mortality 24 h): 0%; mortality at 0.2 ppm ([1]; Conc. 0.2 ppm, 48 h, read-out: % Mortality 48 h): 0%; mortality at 2 ppm ([1]; Conc. 2.0 ppm, 24 h, read-out: % Mortality 24 h): 100%; mortality at 2 ppm ([1]; Conc. 2.0 ppm, 48 h, read-out: % Mortality 48 h): 100%; mortality at 20 ppm ([1]; Conc. 20.0 ppm, 24 h, read-out: % Mortality 24 h): 75%; mortality at 20 ppm ([1]; Conc. 20.0 ppm, 48 h, read-out: % Mortality 48 h): 95%; % Mortality 4 h ([3]; Conc. 0.78 ug/cm2, 4 h): 0%; % Mortality 24 h ([3]; Conc. 0.78 ug/cm2, 24 h): 20%; % Mortality 4 h ([3]; Conc. 7.80 ug/cm2, 4 h): 40%; % Mortality 24 h ([3]; Conc. 7.80 ug/cm2, 24 h): 70%
CN(C)c1c(C#N)c(C2(C)CC2(Cl)Cl)nn1-c1c(Cl)cc(C(F)(F)F)cc1Cl (stereo not shown) [Example 32] | 0 | 0 | 91 | 96 | 0 | 100 | % Mortality 24 h ([1]; Conc. 0.2 ppm, 24 h): 0%; % Mortality 48 h ([1]; Conc. 0.2 ppm, 48 h): 0%; % Mortality 4 h ([3]; Conc. 0.78 ug/cm2, 4 h): 0%; % Mortality 24 h ([3]; Conc. 0.78 ug/cm2, 24 h): 60%; % Mortality 4 h ([3]; Conc. 7.80 ug/cm2, 4 h): 0%; % Mortality 24 h ([3]; Conc. 7.80 ug/cm2, 24 h): 30%
CC1(c2nn(-c3c(Cl)cc(C(F)(F)F)cc3Cl)c(NC(=O)C3CC3)c2C#N)CC1(Cl)Cl (stereo not shown) [Example 36] | – | – | 10 | 10 | – | – | % Mortality 24 h ([1]; Conc. 10.0 ppm, 24 h): 0%
CC1(c2nn(-c3c(Cl)cc(Cl)cc3Cl)cc2C#N)CC1 [Example 11] | – | – | 0 | 0 | – | – | –
CC1(c2nn(-c3c(Cl)cc(C(F)(F)F)cc3Cl)c(N)c2C#N)CC1(Br)Br (stereo not shown) [Example 21] | 95 | 100 | 90 | 100 | 0 | 0 | % Mortality 24 h ([1]; Conc. 0.2 ppm, 24 h): 0%; % Mortality 48 h ([1]; Conc. 0.2 ppm, 48 h): 0%; % Mortality 4 h ([3]; Conc. 0.78 ug/cm2, 4 h): 10%; % Mortality 24 h ([3]; Conc. 0.78 ug/cm2, 24 h): 10%; % Mortality 4 h ([3]; Conc. 7.80 ug/cm2, 4 h): 0%; % Mortality 24 h ([3]; Conc. 7.80 ug/cm2, 24 h): 40%
CC1(c2nn(-c3c(Cl)cc(C(F)(F)F)cc3Cl)c(Cl)c2C#N)CC1(Br)Br (stereo not shown) [Example 20] | 100 | 100 | 100 | 100 | 20 | 100 | % Mortality 24 h ([1]; Conc. 0.2 ppm, 24 h): 0%; % Mortality 48 h ([1]; Conc. 0.2 ppm, 48 h): 0%; % Mortality 4 h ([3]; Conc. 0.78 ug/cm2, 4 h): 0%; % Mortality 24 h ([3]; Conc. 0.78 ug/cm2, 24 h): 20%; % Mortality 4 h ([3]; Conc. 7.80 ug/cm2, 4 h): 20%; % Mortality 24 h ([3]; Conc. 7.80 ug/cm2, 24 h): 50%
CCOC=Nc1c(C#N)c(C2(C)CC2(Cl)Cl)nn1-c1c(Cl)cc(C(F)(F)F)cc1Cl (racemic) [Example 40] | 0 | 0 | 100 | 100 | 0 | 100 | –
COc1ccc(C2(c3nn(-c4c(Cl)cc(C(F)(F)F)cc4Cl)cc3C#N)CC2)cc1 [Example 9] | – | – | 0 | 0 | – | – | –
CC1(c2nn(-c3c(Cl)cc(C(F)(F)F)cc3Cl)c(N(C(=O)C3CC3)C(=O)C3CC3)c2C#N)CC1(Cl)Cl (stereo not shown) [Example 35] | – | – | 0 | 0 | – | – | –
N#Cc1c(C2CC2)nn(-c2c(Cl)cc(C(F)(F)F)cc2Cl)c1Cl [Example 26] | 0 | 0 | 97 | 97 | 100 | 100 | % Mortality 24 h ([1]; Conc. 10.0 ppm, 24 h): 0%; % Mortality 48 h ([1]; Conc. 10.0 ppm, 48 h): 50%
N#Cc1cn(-c2c(Cl)cc(C(F)(F)F)cc2Cl)nc1C1(c2ccc(Cl)cc2Cl)CC1 [Example 17] | – | – | 0 | 0 | – | – | –
CC1(c2nn(-c3c(Cl)cc(Cl)cc3Cl)c(N)c2C#N)CC1(Cl)Cl (stereo not shown) [Example 25] | – | – | 5 | 5 | – | – | % Mortality 24 h ([1]; Conc. 10.0 ppm, 24 h): 0%; % Mortality 48 h ([1]; Conc. 10.0 ppm, 48 h): 0%
CC(C)(C)C(=O)Nc1c(C#N)c(C2(C)CC2(Cl)Cl)nn1-c1c(Cl)cc(C(F)(F)F)cc1Cl (stereo not shown) [Example 34] | – | – | 0 | 0 | – | – | –
N#Cc1cn(-c2c(Cl)cc(C(F)(F)F)cc2Cl)nc1C1(c2ccc(Cl)cc2)CC1 [Example 10] | – | – | 0 | 0 | – | – | –
COc1ccc(C2(c3nn(-c4c(Cl)cc(Cl)cc4Cl)cc3C#N)CC2)cc1 [Example 13] | – | – | 0 | 0 | – | – | –
N#Cc1cn(-c2c(Cl)cc(Cl)cc2Cl)nc1C1(c2ccc(Cl)cc2Cl)CC1 [Example 18] | – | – | 0 | 0 | – | – | –
CN(C)C=Nc1c(C#N)c(C2(C)CC2(Cl)Cl)nn1-c1c(Cl)cc(C(F)(F)F)cc1Cl (stereo not shown) [Example 38] | – | – | 0 | 0 | – | – | –
CC1(c2nn(-c3c(Cl)cc(Cl)cc3Cl)c(Br)c2C#N)CC1(Cl)Cl (stereo not shown) [Example 28] | 95 | 100 | 100 | 100 | 0 | 10 | % Mortality 24 h ([1]; Conc. 0.2 ppm, 24 h): 0%; % Mortality 48 h ([1]; Conc. 0.2 ppm, 48 h): 0%
CC1(c2nn(-c3c(Cl)cc(Cl)cc3Cl)c(Cl)c2C#N)CC1(Cl)Cl (stereo not shown) [Example 27] | 100 | 100 | 100 | 100 | 10 | 100 | % Mortality 24 h ([1]; Conc. 0.2 ppm, 24 h): 0%; % Mortality 48 h ([1]; Conc. 0.2 ppm, 48 h): 0%
COC=Nc1c(C#N)c(C2(C)CC2(Cl)Cl)nn1-c1c(Cl)cc(C(F)(F)F)cc1Cl (stereo not shown) [Example 37] | 0 | 0 | 100 | 100 | 10 | 100 | –
CC1(c2nn(-c3c(Cl)cc(Cl)cc3Cl)cc2C#N)CC1(Br)Br (stereo not shown) [Example 15] | 95 | 95 | 90 | 90 | 10 | 80 | % Mortality 24 h ([1]; Conc. 0.2 ppm, 24 h): 0%; % Mortality 48 h ([1]; Conc. 0.2 ppm, 48 h): 0%
N#Cc1c(C2CC2)nn(-c2c(Cl)cc(C(F)(F)F)cc2Cl)c1N [Example 24] | – | – | – | – | – | – | % Mortality 24 h ([1]; Conc. 10.0 ppm, 24 h): 0%; % Mortality 48 h ([1]; Conc. 10.0 ppm, 48 h): 0%
